The values that follow come from US20100081632A1, “High-content and high throughput assays for identification of lipid-regulating pathways, and novel therapeutic agents for lipid disorders” (Odyssey Thera, Inc., priority 2008, published 2010).

In one experiment the test system is PCSK9/LDLR complex. The experiment is described as follows: PCSK9/LDLR protein complementation assay (PCA) in transfected HEK293 cells. Type of experiment: cell-based, human. The protocol: In one of the embodiments of the invention, the cell-based assay consists of transfected cDNAs encoding full-length PCSK9 and LDL receptor, each sequence linked in-frame to rationally designed fragments of a variant of green fluorescent protein. These two plasmid constructs were co-expressed in human HEK cells plated in 384-well poly-lysine coated plates. After 24-48 hours of incubation, drugs (or vehicle controls) were added to the media, and the existence and localization of PCSK9/LDL receptor complexes was quantified on an Opera automated confocal fluorescence microscopy platform (Perkin Elmer). Images were subjected to automated image analysis, and results quantified and subjected to statistical analysis.
HEK 293T cells were seeded in normal growth media containing DMEM and 10% FBS at 1.5×10^4 in PDL-coated 96-well plates 24 hours prior to transfection. Cells were transfected with 50 ng of each construct DNA per well with Fugene 6, using conditions recommended by the manufacturer. Cells were allowed to express the construct pairs for 24- or 48 h, then the cells were simultaneously fixed and stained with either a 1:300 dilution of Hoescht 33342 (Molecular Probes, Eugene, Oreg.) or a 1:1000 dilution of Draq5 (Biostatus, Shepshed, Leicestershire, U.K.) in 4% formaldehyde for 15 minutes at room temperature. The cells were washed to remove fixative, and overlaid with a small volume of Hank's Buffered Salt Solution. Images were acquired on a Discovery-1 (Molecular Devices) epifluorescence microscope using the 20× objective, and DAPI and FITC filter sets. (with excitation at 350 and 488 nm wave lengths) or on an Opera (Perkin Elmer) confocal microscope using the 20× water objective with the following excitation and emission settings: Ex 488 nm/Em 535 nm (YFP) and Ex 635 nm/Em 640 nm (Draq5).
To test for in vitro PCSK9 function and activity, we developed a protein complementation assay (PCA) with PCSK9-IFP2 and the LDL-IFP1 receptor (PCSK9/LDLR). Expression of wild type PCSK9-IFP2 in transfected HEK293 cells was confirmed by Western blot using an antibody against YFP (FIG. 2). Cotranfection of HEK cells with increasing ratios of PCSK9-IFP2 and LDLR-IFP1 DNA constructs results in increased PCA signal (FIG. 3) but not when each construct is expressed alone. The intracellular localization of the wild-type PCSK9-IFP2/LDLR-IFP1 PCA interaction is similar to the known localization of wild type PCSK9 in the endoplasmic reticulum (ER) and post-ER compartments in various cell types (20, 21). The PCA signal for the PCSK9-IFP2/LDLR-IFP1 pair appears to be localized to multiple intracellular trafficking sites including the ER, endosomes and the cell surface.
In order to test the viability of using the PCSK9-IFP2/LDLR-IFP1 PCA as a drug discovery tool, we tested a drug plate containing 50 known drugs at 3 doses in the assay (Table 10) as well as several protein kinase inhibitors (representative compounds are depicted in Table 11). […] We observed the following effects of known compounds on the PCSK9/LDLR complex:
A collection of small molecular weight compounds was screened. […] To expand on this observation, we characterized the effects of a larger panel of kinase inhibitors on the PCSK9/LDLr complex. 47 compounds representing a broad range of known receptor tyrosine and serine-threonine kinase inhibitors were assessed (table 2). A subset was identified that had inhibitory effects on the PCSK9/LDLr complex (degree of assay inhibition relative to control is indicated by “% control”, Table 2).

In the next experiment the test system is HepG2 cells. As to the kind of experiment: LDL uptake in HepG2 cells (human LDL conjugated to DyLight 549). In kind it is cell-based. Particulars: for % Control (Table 5, titled LDL uptake in Hepg2 cells): values repeat Table 2; for effect on LDL uptake (in words): HepG2, 10 μM; for x-fold increase (hepatic LDL uptake): HepG2. The text has this:
The assay uses human LDL conjugated to DyLight™ 549 as a fluorescent probe for detection of LDL uptake into HepG2 cells.
We assessED whether compounds that inhibit the PCSK9/LDLr assay would have activity on LDL uptake and metabolism in a relevant cell type. PCSK9 is thought to be a negative regulator of LDLr. Thus, we predicted that compounds inhibiting the PCSK9 PCA signal would increase LDL receptor expression and LDL uptake. An assay using human LDL conjugated to DyLight™ 549 as a fluorescent probe for detection of LDL uptake into cultured human hepatocytes. A separate assay, using an LDL receptor-specific polyclonal antibody and a DyLight™ 488-conjugated secondary antibody, was also performed to localize LDL receptors
Quantitation of the increased LDL uptake of these and other kinase inhibitors targeting Akt, mTOR, p38, GSK3 and VEGF is shown in Table 4.

With `CC(C)[C@H](CO)Nc1nc(Nc2cccc(Cl)c2)c2ncn(C(C)C)c2n1` [Purvalanol A], the “% Control (PCSK9/LDLr PCA)” value in the experiment on PCSK9/LDLR complex (dose 15 μM) is on record as 52%. Besides, the “% Control (Table 5, titled LDL uptake in Hepg2 cells)” value with HepG2 cells (dose 15 μM) was 52%.

Take Indirubin-3′-Monoxime: in the experiment with PCSK9/LDLR complex (dose 10 μM), the “% Control (PCSK9/LDLr PCA)” value is on record as 64%. Moreover, the “% Control (Table 5, titled LDL uptake in Hepg2 cells)” value in the experiment with HepG2 cells (dose 10 μM) amounted to 64%.

On to `COc1cc2ncnc(Nc3ccc(Oc4ccccc4)cc3)c2cc1OC` [Src Kinase Inhibitor I, 4-(4-prime-Phenoxyanilino)-6,7-dimethoxyquinazoline], for which the “% Control (PCSK9/LDLr PCA)” value in the experiment on PCSK9/LDLR complex (dose 12.5 μM) turned out to be 50%. Besides, in the experiment with HepG2 cells, the “effect on LDL uptake (in words)” value is “dramatic increase in LDL uptake”. The results for the “x-fold increase (LDL uptake in Hepg2 cells)” value in the experiment with HepG2 cells (dose 3 μM) and in the experiment on HepG2 cells (dose 10 μM) were 2.3 x-fold and 5.1 x-fold, respectively. The “x-fold increase (hepatic LDL uptake)” value in the experiment with HepG2 cells (dose 10 µM) worked out at 5.1 x-fold; with HepG2 cells (dose 3 µM), 2.3 x-fold. Also, the “% Control (Table 5, titled LDL uptake in Hepg2 cells)” value with HepG2 cells (dose 12.5 μM) is on record as 50%.

Take `COc1cc2c(Nc3ccc(Br)cc3F)ncnc2cc1OCC1CCN(C)CC1` [Vandetanib]: the “% Control (PCSK9/LDLr PCA)” value in the experiment on PCSK9/LDLR complex (dose 100 μM) was determined as 39%. In addition, the “x-fold increase (LDL uptake in Hepg2 cells)” value with HepG2 cells (dose 1 μM) turned out to be 1.5 x-fold; in the experiment with HepG2 cells (dose 3 μM) it was 2.0 x-fold. Also, the results for the “x-fold increase (hepatic LDL uptake)” value with HepG2 cells (dose 1 µM) and with HepG2 cells (dose 3 µM) were 1.5 x-fold and 2.0 x-fold, respectively.

Turning to `Cc1ccc([N+](=O)[O-])cc1S(=O)(=O)N(C)/N=C/c1cnc2ccc(Br)cn12` [PI 3-Kalpha Inhibitor VIII, N-((1E)-(6-Bromoimidazo[1,2-a]pyridin-3-yl)methylene)-Nprime-methyl-Ndoubleprime-(2-methyl-5-nitrobenzene)sulfonohydrazide], the “% Control (PCSK9/LDLr PCA)” value in the experiment with PCSK9/LDLR complex (dose 1 μM) came out at 44%; in the experiment with PCSK9/LDLR complex (dose 3 μM), 39%; with PCSK9/LDLR complex (dose 10 μM), 29%. The “% Control (Table 5, titled LDL uptake in Hepg2 cells)” value is 44% in the experiment with HepG2 cells (dose 1 μM) and 39% in the experiment on HepG2 cells (dose 3 μM).

Turning to `Cc1ccc(NC(=O)c2ccc(CN3CCN(C)CC3)cc2)cc1Nc1nccc(-c2cccnc2)n1` [Imatinib], the “effect on formation of PCSK9/LDLR complexes / PCA signal (in words)” value with PCSK9/LDLR complex is “inhibit the formation of PCSK9/LDLR complexes”. Further, the “% Control (PCSK9/LDLr PCA)” value in the experiment with PCSK9/LDLR complex (dose 10 μM) is on record as 55%. Also, in the experiment on HepG2 cells, the “effect on LDL uptake (in words)” value is recorded as “dramatic increase in LDL uptake”. Moreover, the figures for the “x-fold increase (LDL uptake in Hepg2 cells)” value in the experiment with HepG2 cells (dose 3 μM) and in the experiment with HepG2 cells (dose 10 μM) were 2.4 x-fold and 5.4 x-fold, respectively. Further, the entries for the “x-fold increase (hepatic LDL uptake)” value with HepG2 cells (dose 10 µM) and in the experiment with HepG2 cells (dose 3 µM) were 5.4 x-fold and 2.4 x-fold, respectively. Moreover, in the experiment on HepG2 cells (dose 10 μM), the “% Control (Table 5, titled LDL uptake in Hepg2 cells)” value came to 55%.

As for `CCOc1cc2ncc(C#N)c(Nc3ccc(OCc4ccccn4)c(Cl)c3)c2cc1NC(=O)/C=C/CN(C)C` [Neratinib], the “% Control (PCSK9/LDLr PCA)” value is reported as 64% with PCSK9/LDLR complex (dose 1 μM) and 61% in the experiment on PCSK9/LDLR complex (dose 3 μM). In addition, the “effect on LDL uptake (in words)” value in the experiment with HepG2 cells is recorded as “dramatic increase in LDL uptake”. Further, in the experiment with HepG2 cells (dose 10 μM), the “x-fold increase (LDL uptake in Hepg2 cells)” value is reported as 2.2 x-fold. In addition, the “x-fold increase (hepatic LDL uptake)” value with HepG2 cells (dose 10 µM) is 2.2 x-fold.

On to `COC[C@H]1OC(=O)c2coc3c2[C@@]1(C)C1=C(C3=O)[C@@H]2CCC(=O)[C@@]2(C)C[C@H]1OC(C)=O` [Wortmannin], for which, in the experiment on PCSK9/LDLR complex (dose 1.5 μM), the “% Control (PCSK9/LDLr PCA)” value was 63%.

Take `CC(C)(C)c1ccc(C(O)CCCN2CCC(C(O)(c3ccccc3)c3ccccc3)CC2)cc1` (stereo not shown) [Terfenadine]: the “% Control (PCSK9/LDLr PCA)” value in the experiment with PCSK9/LDLR complex (dose 10 μM) is 59%.

For `Cc1cn(-c2cc(NC(=O)c3ccc(C)c(Nc4nccc(-c5cccnc5)n4)c3)cc(C(F)(F)F)c2)cn1` [Nilotinib], in the experiment on PCSK9/LDLR complex, the “effect on formation of PCSK9/LDLR complexes / PCA signal (in words)” value is “inhibit the formation of PCSK9/LDLR complexes”. Besides, the “% Control (PCSK9/LDLr PCA)” value amounted to 48% in the experiment on PCSK9/LDLR complex (dose 3 μM) and 65% in the experiment with PCSK9/LDLR complex (dose 10 μM).

Consider `CNC(=O)c1cc(Oc2ccc(NC(=O)Nc3ccc(Cl)c(C(F)(F)F)c3)cc2)ccn1` [Sorafenib], for which the entries for the “% Control (PCSK9/LDLr PCA)” value in the experiment with PCSK9/LDLR complex (dose 3 μM) and in the experiment with PCSK9/LDLR complex (dose 10 μM) were 57% and 58%, respectively. For the same compound, the “% Control (Table 5, titled LDL uptake in Hepg2 cells)” value turned out to be 57% in the experiment with HepG2 cells (dose 3 μM) and 58% with HepG2 cells (dose 10 μM).
